Laboratory results from patent US20200237759A1, “DOSAGE REGIME AND METHOD FOR TREATING PULMONARY ARTERIAL HYPERTENSION” (Altavant Sciences GmbH, priority 2019, published 2020).
Values joined by “and” are separate entries in the source; they are usually repeats but may differ in a detail not shown here. Equal values may be shown once.

Assay: Part 2 MAD plasma pharmacokinetics, BID oral KAR5585 for 14 days
[1] = 100 mg (Cohort 2) to 400 mg (Cohort 4) BID fed, 4-fold increase in dose
[2] = 100 mg/dose BID Fasted, Cohort 1, Day 1 AM
[3] = 100 mg/dose BID Fasted, Cohort 1, Day 14
[4] = 100 mg/dose BID Fed, Cohort 2, Day 1 AM
[5] = 100 mg/dose BID Fed, Cohort 2, Day 1 PM
[6] = 100 mg/dose BID Fed, Cohort 2, Day 7 AM
[7] = 100 mg/dose BID Fed, Cohort 2, Day 7 PM
[8] = 100 mg/dose BID Fed, Cohort 2, Day 14
[9] = 200 mg/dose BID Fed, Cohort 3, Day 1 AM
[10] = 400 mg/dose BID Fed, Cohort 4, Day 1 AM
[11] = 400 mg/dose BID Fed, Cohort 4, Day 1 PM
[12] = 400 mg/dose BID Fed, Cohort 4, Day 7 AM
[13] = 400 mg/dose BID Fed, Cohort 4, Day 7 PM
[14] = 400 mg/dose BID Fed, Cohort 4, Day 14 (last block, /D fits 400 mg)
[15] = Day 7 AM, blank dose cell under 400/Fed Cohort 4, /D fits 200 mg Fed Cohort 3
[16] = Day 7 AM, blank dose cell under 400/Fed Cohort 4, likely 200 mg Fed Cohort 3
[17] = Day 7 PM (3rd 7/PM block), blank dose cell under 400/Fed Cohort 4, /D fits 200 mg Fed Cohort 3
[18] = Day 7 PM, blank dose cell under 400/Fed Cohort 4, /D fits 200 mg Fed Cohort 3
[19] = Day 14 (first Day 14 block), blank dose cell under 400/Fed Cohort 4, /D fits 200 mg Fed Cohort 3

Procedure: Food effect was to be evaluated in Part 1, Period 2.
Part 2 (MAD): BID doses (separated by approximately 12 hours on Days 1 to 13) and a single AM dose on Day 14. One or more of the MAD Cohort could have been dosed once daily (QD).
Pharmacokinetic data were to be summarized descriptively.

SMILES: CCOC(=O)[C@@H]1CC2(CCN(c3cc(O[C@H](c4ccc(Cl)cc4-c4ccccc4)C(F)(F)F)nc(N)n3)CC2)CN1 [KAR5585, (S)-ethyl 8-(2-amino-6-((R)-1-(5-chloro-[1,1′-biphenyl]-2-yl)-2,2,2-trifluoroethoxy)pyrimidin-4-yl)-2,8-diazaspiro[4.5]decane-3-carboxylate]
- increase in mean AUC0-12, Day 1 [1]: 5.1 fold
- increase in mean AUC0-12, Day 14 [1]: 3.1 fold
- increase in mean AUC0-24, Day 1 [1]: 3.6 fold
- increase in mean AUC0-24, Day 14 [1]: 3.6 fold and 3.63 fold
- increase in mean Cmax, Day 1 [1]: 4.4 fold
- increase in mean Cmax, Day 14 [1]: ~3.0 fold
- time to peak plasma concentrations (range), Day 1 (100 mg KAR5585 BID, Part 2 Cohort 1 (fasted state)): 0.75 to 2.0 h
- VZ/F, Day 14 (100 mg KAR5585 BID, fed): 3520 L
- mean VZ/F, Day 1 (100 mg KAR5585 BID, fed): 4100 L
- AUC0-12 (Mean) [2]: 0.0628 µg·h/mL
- Cmax (Mean) [2]: 0.0167 µg/mL
- Vz/F (Mean) [2]: 4900 L
- tmax (Median) [2]: 1.5 h
- AUC0-24 (Mean) [3]: 0.0998 µg·h/mL
- C24 (Geo. Mean) [3]: BLQ
- C24 (Mean) [3]: BLQ
- Cmax (Mean) [3]: 0.0213 µg/mL
- Vz/F (Geo. Mean) [3]: 4230 L
- Vz/F (Mean) [3]: 4420 L
- t1/2 (Mean) [3]: 2.49 h
- tmax (Median) [3]: 1.0 h
- AUC0-12 (Geo. Mean) [4]: 0.0512 µg·h/mL
- AUC0-12 (Mean) [4]: 0.0555 µg·h/mL
- AUC0-∞ (Geo. Mean) [4]: 0.0517 µg·h/mL
- AUC0-∞ (Mean) [4]: 0.0559 µg·h/mL
- Cmax (Geo. Mean) [4]: 0.0177 µg/mL
- Cmax (Mean) [4]: 0.0184 µg/mL
- Vz/F (Geo. Mean) [4]: 3830 L
- Vz/F (Mean) [4]: 4100 L
- t1/2 (Geo. Mean) [4]: 1.37 h
- tmax (Median) [4]: 0.75 h
- AUC0-∞ (Geo. Mean) [5]: 0.152 µg·h/mL
- Cmax (Geo. Mean) [5]: 0.0398 µg/mL
- Cmax (Mean) [5]: 0.0441 µg/mL
- Vz/F (Geo. Mean) [5]: 1730 L
- Vz/F (Mean) [5]: 1820 L
- t1/2 (Geo. Mean) [5]: 1.82 h
- tmax (Median) [5]: 2.0 h
- AUC0-12 (Geo. Mean) [6]: 0.127 µg·h/mL
- AUC0-∞ (Geo. Mean) [6]: 0.137 µg·h/mL
- Cmax (Geo. Mean) [6]: 0.0298 µg/mL
- Cmax (Mean) [6]: 0.0313 µg/mL
- Vz/F (Geo. Mean) [6]: 3210 L
- Vz/F (Mean) [6]: 3360 L
- t1/2 (Geo. Mean) [6]: 2.82 h
- tmax (Median) [6]: 2.0 h
- AUC0-12 (Geo. Mean) [7]: 0.142 µg·h/mL
- AUC0-12 (Mean) [7]: 0.145 µg·h/mL
- AUC0-24 (Geo. Mean) [7]: 0.278 µg·h/mL
- AUC0-∞ (Geo. Mean) [7]: 0.168 µg·h/mL
- Cmax (Mean) [7]: 0.0284 µg/mL
- Vz/F (Geo. Mean) [7]: 3550 L
- Vz/F (Mean) [7]: 3910 L
- t1/2 (Mean) [7]: 3.80 h
- tmax (Median) [7]: 4.0 h
- AUC0-12 (Geo. Mean) [8]: 0.114 µg·h/mL
- AUC0-24 (Geo. Mean) [8]: 0.121 µg·h/mL
- AUC0-24 (Mean) [8]: 0.122 µg·h/mL
- AUC0-∞ (Geo. Mean) [8]: 0.121 µg·h/mL
- C24 (Geo. Mean) [8]: BLQ
- C24 (Mean) [8]: BLQ
- Cmax (Geo. Mean) [8]: 0.0285 µg/mL
- Cmax (Mean) [8]: 0.03 µg/mL
- Vz/F (Geo. Mean) [8]: 3330 L
- Vz/F (Mean) [8]: 3520 L
- t1/2 (Geo. Mean) [8]: 2.64 h
- t1/2 (Mean) [8]: 2.73 h
- tmax (Median) [8]: 1.8 h
- VZ/F, Day 14 (200 mg KAR5585 BID, fed): 7010 L
- mean VZ/F, Day 1 (200 mg KAR5585 BID, fed): 3220 L
- Cmax (Mean) [9]: 0.0878 µg/mL
- Vz/F (Geo. Mean) [9]: 3130 L
- Vz/F (Mean) [9]: 3220 L
- t1/2 (Geo. Mean) [9]: 2.81 h
- t1/2 (Mean) [9]: 2.91 h
- tmax (Median) [9]: 1.5 h
- VZ/F, Day 14 (400 mg KAR5585 BID, fed): 10300 L
- mean VZ/F, Day 1 (400 mg KAR5585 BID, fed): 6800 L
- tmax Day 7 evening dose (400 mg KAR5585 BID, fed): 6 h
- AUC0-12 (Geo. Mean) [10]: 0.0253 µg·h/mL
- AUC0-12 (Mean) [10]: 0.00281 µg·h/mL
- AUC0-∞ (Geo. Mean) [10]: 0.272 µg·h/mL
- AUC0-∞ (Mean) [10]: 0.305 µg·h/mL
- Cmax (Mean) [10]: 0.0818 µg/mL
- Vz/F (Mean) [10]: 6800 L
- t1/2 (Geo. Mean) [10]: 3.00 h
- tmax (Median) [10]: 2.0 h
- AUC0-∞ (Geo. Mean) [11]: 0.633 µg·h/mL
- Cmax (Geo. Mean) [11]: 1.1 µg/mL
- Vz/F (Geo. Mean) [11]: 3820 L
- Vz/F (Mean) [11]: 4030 L
- t1/2 (Geo. Mean) [11]: 4.18 h
- t1/2 (Mean) [11]: 4.33 h
- tmax (Median) [11]: 3.0 h
- AUC0-12 (Geo. Mean) [12]: 0.473 µg·h/mL
- AUC0-∞ (Geo. Mean) [12]: 0.577 µg·h/mL
- Cmax (Geo. Mean) [12]: 0.0913 µg/mL
- Vz/F (Geo. Mean) [12]: 5680 L
- Vz/F (Mean) [12]: 6220 L
- t1/2 (Mean) [12]: 4.90 h
- tmax (Median) [12]: 2.0 h
- AUC0-12 (Geo. Mean) [13]: 0.394 µg·h/mL
- AUC0-∞ (Geo. Mean) [13]: 0.534 µg·h/mL
- Cmax (Mean) [13]: 0.069 µg/mL
- Vz/F (Geo. Mean) [13]: 6770 L
- Vz/F (Mean) [13]: 6950 L
- tmax (Median) [13]: 6.0 h
- AUC0-12 (Geo. Mean) [14]: 0.359 µg·h/mL
- AUC0-24 (Geo. Mean) [14]: 0.433 µg·h/mL
- AUC0-24 (Mean) [14]: 0.444 µg·h/mL
- AUC0-∞ (Geo. Mean) [14]: 0.465 µg·h/mL
- Cmax (Geo. Mean) [14]: 0.0853 µg/mL
- Cmax (Mean) [14]: 0.089 µg/mL
- Vz/F (Geo. Mean) [14]: 9780 L
- Vz/F (Mean) [14]: 10300 L
- t1/2 (Geo. Mean) [14]: 6.08 h
- t1/2 (Mean) [14]: 6.45 h
- tmax (Median) [14]: 1.5 h
- study day by which steady-state plasma levels were achieved (BID oral KAR5585 for 14 days): ≤ 7 days
- tmax (Median) (Day 7 AM): 3.0 h
- t1/2 (Geo. Mean) [15]: 4.21 h
- t1/2 (Mean) [15]: 4.30 h
- AUC0-12 (Geo. Mean) [16]: 0.217 µg·h/mL
- AUC0-12 (Mean) [16]: 0.23 µg·h/mL
- AUC0-∞ (Geo. Mean) [16]: 0.256 µg·h/mL
- AUC0-∞ (Mean) [16]: 0.273 µg·h/mL
- Vz/F (Geo. Mean) [16]: 5610 L
- Vz/F (Mean) [16]: 5960 L
- tmax (Median) (Day 7 PM): 6.0 h
- AUC0-12 (Geo. Mean) [17]: 0.201 µg·h/mL
- AUC0-24 (Geo. Mean) [17]: 0.414 µg·h/mL
- AUC0-∞ (Geo. Mean) [17]: 0.289 µg·h/mL
- AUC0-∞ (Mean) [17]: 0.29 µg·h/mL
- Vz/F (Geo. Mean) [17]: 7000 L
- Vz/F (Mean) [17]: 8710 L
- AUC0-12 (Geo. Mean) [18]: 0.333 µg·h/mL
- AUC0-24 (Geo. Mean) [18]: 0.583 µg·h/mL
- AUC0-∞ (Geo. Mean) [18]: 0.406 µg·h/mL
- Cmax (Mean) [18]: 0.0426 µg/mL
- Vz/F (Geo. Mean) [18]: 3010 L
- Vz/F (Mean) [18]: 3120 L
- AUC0-24 (Geo. Mean) [19]: 0.199 µg·h/mL
- AUC0-24 (Mean) [19]: 0.212 µg·h/mL
- C24 (Geo. Mean) [19]: BLQ
- C24 (Mean) [19]: BLQ
- Cmax (Geo. Mean) [19]: 0.0435 µg/mL
- Cmax (Mean) [19]: 0.0488 µg/mL
- Vz/F (Geo. Mean) [19]: 6430 L
- Vz/F (Mean) [19]: 7010 L
